Measured values as given in patent publication US20080020421A1, “METHODS OF SCREENING AGENTS FOR CYTOTOXIC AND ANTIMICROBIAL ACTIVITY” (priority 2006, published 2008).

Columns and labels:
E. coli-GFP = assay: Toxicity assay with GFP-expressing E. coli; conditions: for Percent-GFP-fluorescence after incubation with test compounds, E. coli-GFP (20 μg/ml): 10 h incubation, relative to untreated bacteria
Protocol: (§1) E. coli-GFP cells were grown in LB broth media while the MAC104 M. avium strain was grown in 7H9-ADC media.
(§2) Toxicity assays with GFP-expressing bacteria. E. coli was transformed with a GFP-expression plasmid that also confers tetracycline resistance was kindly provided by Dr. David Schneider (Elrod-Erickson et al., 2000). […] Both bacterial strains were grown and selected based on antibiotic resistance and GFP expression. All toxicity assays were performed using the plates and fluorometric parameters described in the previous section. Bacterial cell suspensions were seeded in a final volume of 100 μl at an optical density of 0.05 and 0.25 at 650 nm, for E. coli-GFP and M. avium-GFP, respectively. After exposure to the test compounds, assay plates were incubated at 37° C. in a humid environment to prevent dehydration in the wells. Unlike the HeLa-GFP assays, reading were performed without removing the supernatants to avoid loss of cells. Several untreated wells containing bacteria and media were used to determine the maximum level of fluorescence. Several wells containing media alone (no bacteria) were included in each assay to remove background fluorescence.
(§3) Data analysis. All compounds, including controls, were screened in triplicate. The average of the three wells that were used for the removal of the background fluorescence (wells containing water for the HeLa-GFP assays and wells containing media alone for bacteria) was subtracted from each individual well. The mean of these triplicate values for each compound was then obtained.

[1] = system: M. avium-GFP (strain MAC104); assay: Toxicity assay with GFP-expressing M. avium; conditions: for Percent-GFP-fluorescence after incubation with test compounds, M. avium-GFP (20 μg/ml): 18 h incubation, relative to untreated bacteria
Protocol: as §1, §2, §3

HeLa-GFP cells = assay: HeLa-GFP fluorometric cytotoxicity assay; conditions: for Percent-GFP-fluorescence after incubation with test compounds, HeLa-GFP (2 μg/ml) / Percent-GFP-fluorescence after incubation with test compounds, HeLa-GFP (20 μg/ml): 18 h incubation, relative to untreated (DMSO) cells
Protocol: Cell culture. HeLa-GFP cells were cultured in DMEM media supplemented with 10% heat-inactivated newborn calf serum as previously described (Montoya et al., 2004). Stock cultures were prewashed twice with PBS before the treatment of trypsin for cell resuspension and subsequently re-plated at the concentration of 4,000 cells/well.
HeLa-GFP fluorometric cytotoxicity assay. All cell lines were seeded in clear-bottomed 96-well assay plates (3603, Costar, Corning Inc., Corning, N.Y.) in order to minimized background fluorescence. HeLa cells were grown in a total volume of 0.2 ml of medium and incubated overnight for proper cell attachment. The quinone compounds were then added to each well (in triplicate) and then incubated for a period of 18 hr. For the determination of fluorescence, the assay plates were then read using the Fluoroskan Ascent F1 fluorometer (Thermo Electron Corp.) set at the excitation and emission parameters of 485 and 518 nm, respectively. Since the HeLa-GFP cell line is adherent, the fluorometer was set to read from the bottom of the plate for closer proximity to the cells. Before the readings were performed, all supernatant media was removed to avoid any background interference and thus enhancing the sensitivity of the optical readings. For calibration purposes, three untreated control wells were used to determine the maximum level of fluorescence (100%). […] As a cytolysis control (complete loss of fluorescence), three wells containing cells were exposed to 0.2 ml of deionized water. These controls were then used to calculate the percent loss of GFP signal after compound exposure as determined by comparison with control wells containing cells that were not exposed to the chemical agent (see data analysis below).
Data analysis. All compounds, including controls, were screened in triplicate. The average of the three wells that were used for the removal of the background fluorescence (wells containing water for the HeLa-GFP assays and wells containing media alone for bacteria) was subtracted from each individual well. The mean of these triplicate values for each compound was then obtained. These mean values were then divided by the average obtained for maximum fluorescence (cells not treated with compound) and then multiplied by 100 to obtain the percentage values as shown in Table 1.

[2] = loss of GFP signal, Table 1 screen

Structure (SMILES) | Percent-GFP-fluorescence after incubation with test compounds, E. coli-GFP (20 μg/ml) (E. coli-GFP) | Percent-GFP-fluorescence after incubation with test compounds, M. avium-GFP (20 μg/ml) [1] | Percent-GFP-fluorescence after incubation with test compounds, HeLa-GFP (2 μg/ml) (HeLa-GFP cells) | Percent-GFP-fluorescence after incubation with test compounds, HeLa-GFP (20 μg/ml) (HeLa-GFP cells) | toxicity to E. coli (in words) (E. coli-GFP; [2]) | toxicity to M. avium (in words) [1, 2] | toxicity to HeLa-GFP cells (in words) (HeLa-GFP cells; [2])
O=C1c2ccccc2C(=O)C2(c3ccccc3)OC12c1ccccc1 (stereo not drawn) [Compound Q20] | 86.0% | 77.0% | 28.0% | 29.0% |  |  | 
COC(=O)c1ccccc1C1=C(CN(C(=O)OC(C)(C)C)C(=O)OC(C)(C)C)C(=O)c2ccccc2C1=O [Compound Q33] | 102.0% | 74.0% | 88.0% | 62.0% |  |  | 
CCCC12OC1(CCC)C(=O)c1ccccc1C2=O (stereo not drawn) [Compound Q26] | 110.0% | 97.0% | 26.0% | 27.0% |  |  | 
CC12OC1(c1ccccc1)C(=O)c1ccccc1C2=O (stereo not drawn) [Compound Q21] | 122.0% | 57.0% | 57.0% | 23.0% |  |  | 
CCOC(=O)c1cccc(C2=C(CN(C(=O)OC(C)(C)C)C(=O)OC(C)(C)C)C(=O)c3ccccc3C2=O)c1 [Compound Q37] | 105.0% | 92.0% | 90.0% | 62.0% |  |  | 
CCCCC12OC1(c1ccccc1)C(=O)c1ccccc1C2=O (stereo not drawn) [Compound Q22] | 110.0% | 91.0% | 75.0% | 14.0% |  |  | 
CCOC(=O)c1cccc(C2=C(CNC(=O)OC(C)(C)C)C(=O)c3ccccc3C2=O)c1 [Compound Q36] | 100.0% | 93.0% | 89.0% | 59.0% |  |  | 
CC1=CC(=O)c2ccccc2C1=O [Compound Q5, menadione, reference compound] | 58.0% | 69.0% | 13.0% | 22.0% | highly toxic | highly toxic | highly toxic
CCCCCC1=C(C)C(=O)c2ccccc2C1=O [Compound Q9] | 115.0% | 85.0% | 90.0% | 31.0% |  |  | 
CCOC(=O)c1ccc(C2=C(CN(C(=O)OC(C)(C)C)C(=O)OC(C)(C)C)C(=O)c3ccccc3C2=O)cc1 [Compound Q39] | 108.0% | 96.0% | 88.0% | 62.0% |  |  | 
CCOC(=O)c1ccccc1C1=C(CNC(=O)OC(C)(C)C)C(=O)c2ccccc2C1=O [Compound Q34] | 87.0% | 64.0% | 86.0% | 49.0% |  |  | 
CCCCCCC1=CC(=O)c2ccccc2C1=O [Compound Q11] | 98.0% | 69.0% | 84.0% | 14.0% |  |  | 
CCCC1=C(CCC)C(=O)c2c(OC)cccc2C1=O [Compound Q19] | 99.0% | 73.0% | 78.0% | 38.0% |  |  | 
CCOC(=O)c1ccc(C2=C(CNC(=O)OC(C)(C)C)C(=O)c3ccccc3C2=O)cc1 [Compound Q38] | 103.0% | 119.0% | 81.0% | 61.0% |  |  | 
CCOC(=O)c1ccccc1C1=C(CN(C(=O)OC(C)(C)C)C(=O)OC(C)(C)C)C(=O)c2ccccc2C1=O [Compound Q35] | 104.0% | 108.0% | 85.0% | 58.0% |  |  | 
CCCCC12OC1C(=O)c1ccccc1C2=O (stereo not drawn) [Compound Q24] | 87.0% | 202.0% | 5.0% | 23.0% |  |  | 
O=C1C=CC(=O)c2c(O)cccc21 [Compound Q2] | 111.0% | 72.0% | 14.0% | 29.0% |  |  | 
O=C1C=C(c2ccccc2)C(=O)c2ccccc21 [Compound Q7] | 89.0% | 35.0% | 13.0% | 25.0% |  |  | 
